Results published in ChEMBL document CHEMBL1138457, “Design and synthesis of an orally bioavailable and selective peptide epoxyketone proteasome inhibitor (PR-047)” (J Med Chem, 2009).
Values after ≈ are worked out from the molar mass of the structure shown.

Test system: not listed separately
Experiment: Cytotoxicity against human MESSA cells assessed as cell viability after 72 hrs by CellTiter-Glo luminescent assay
Assay type: functional, cell-based
Settings: MES-SA

SMILES	IC50 [µM]
CCOc1cc(C(=O)N[C@@H](COC)C(=O)N[C@@H](COC)C(=O)N[C@@H](CC(C)C)C(=O)[C@@]2(C)CO2)no1	0.0054
CC(C)C[C@H](NC(=O)c1cc(CN2CCOCC2)on1)C(=O)N[C@@H](Cc1ccccc1)C(=O)N[C@@H](CC(C)C)C(=O)[C@@]1(C)CO1	0.022
COC[C@H](NC(=O)c1cc(C)on1)C(=O)N[C@@H](Cc1ccccc1)C(=O)N[C@@H](CC(C)C)C(=O)[C@@]1(C)CO1	0.04
COC[C@H](NC(=O)c1ccon1)C(=O)N[C@@H](COC)C(=O)N[C@@H](Cc1ccccc1)C(=O)[C@@]1(C)CO1	0.043
CC(C)C[C@H](NC(=O)c1cc(Cn2ccnc2)on1)C(=O)N[C@@H](Cc1ccccc1)C(=O)N[C@@H](CC(C)C)C(=O)[C@@]1(C)CO1	0.052
COC[C@H](NC(=O)c1cc(OC)no1)C(=O)N[C@@H](COC)C(=O)N[C@@H](CC(C)C)C(=O)[C@@]1(C)CO1	0.012

Test system: Mus musculus
Experiment: Inhibition of chymotrypsin-like activity of 20S proteasome in BALB/c mouse adrenal gland at 20 mg/kg, po after 1 hr
Assay type: functional
Set-up: scale not given: the % may be the effect or the level left
Settings: not given

SMILES	Activity [%]
COC[C@H](NC(=O)c1cc(C)on1)C(=O)N[C@@H](Cc1ccccc1)C(=O)N[C@@H](CC(C)C)C(=O)[C@@]1(C)CO1	33

Test system: Mus musculus
Experiment: Inhibition of chymotrypsin-like activity of 20S proteasome in BALB/c mouse adrenal gland 40 mg/kg, po after 1 hr
Assay type: functional
Set-up: scale not given: the % may be the effect or the level left
Settings: not given

SMILES	Activity [%]
CC(C)C[C@H](NC(=O)c1cc(CN2CCOCC2)on1)C(=O)N[C@@H](Cc1ccccc1)C(=O)N[C@@H](CC(C)C)C(=O)[C@@]1(C)CO1	29
COC[C@H](NC(=O)c1cc(C)on1)C(=O)N[C@@H](Cc1ccccc1)C(=O)N[C@@H](CC(C)C)C(=O)[C@@]1(C)CO1	9
CC(C)C[C@H](NC(=O)c1cc(Cn2ccnc2)on1)C(=O)N[C@@H](Cc1ccccc1)C(=O)N[C@@H](CC(C)C)C(=O)[C@@]1(C)CO1	110

Species on record: Homo sapiens
Experiment: Ratio of Kinact to Ki for chymotrypsin-like activity of human 26S proteasome by spectrophotometry
Set-up: unit not given here
Settings: not given

SMILES	Ratio
CC(C)C[C@H](NC(=O)c1cc(CN2CCOCC2)on1)C(=O)N[C@@H](Cc1ccccc1)C(=O)N[C@@H](CC(C)C)C(=O)[C@@]1(C)CO1	28300
COC[C@H](NC(=O)c1cc(C)on1)C(=O)N[C@@H](Cc1ccccc1)C(=O)N[C@@H](CC(C)C)C(=O)[C@@]1(C)CO1	58600

Test system: not listed separately
Experiment: Metabolic stability in human liver microsomes assessed as extraction ratio at 1 uM
Assay type: ADME, Microsome
Settings: not given

SMILES	hepatic extraction ratio at 1 µM [dimensionless ratio]
COC[C@H](NC(=O)c1cc(C)on1)C(=O)N[C@@H](Cc1ccccc1)C(=O)N[C@@H](CC(C)C)C(=O)[C@@]1(C)CO1	0.91
COC[C@H](NC(=O)c1cc(OC)no1)C(=O)N[C@@H](COC)C(=O)N[C@@H](CC(C)C)C(=O)[C@@]1(C)CO1	0.4

Results, then the compound that gave them:

hepatic extraction ratio at 1 µM [dimensionless ratio]	SMILES
0.69	CCOc1cc(C(=O)N[C@@H](COC)C(=O)N[C@@H](COC)C(=O)N[C@@H](CC(C)C)C(=O)[C@@]2(C)CO2)no1
0.42	COC[C@H](NC(=O)c1ccon1)C(=O)N[C@@H](COC)C(=O)N[C@@H](Cc1ccccc1)C(=O)[C@@]1(C)CO1

Test system: not listed separately
Experiment: Metabolic stability in mouse liver microsomes assessed as extraction ratio at 1 uM
Assay type: ADME, Microsome
Settings: not given

SMILES	hepatic extraction ratio at 1 µM [dimensionless ratio]
COC[C@H](NC(=O)c1cc(C)on1)C(=O)N[C@@H](Cc1ccccc1)C(=O)N[C@@H](CC(C)C)C(=O)[C@@]1(C)CO1	0.96
COC[C@H](NC(=O)c1cc(OC)no1)C(=O)N[C@@H](COC)C(=O)N[C@@H](CC(C)C)C(=O)[C@@]1(C)CO1	0.37

The remaining lines, values ahead:

hepatic extraction ratio at 1 µM [dimensionless ratio]	SMILES
0.69	CCOc1cc(C(=O)N[C@@H](COC)C(=O)N[C@@H](COC)C(=O)N[C@@H](CC(C)C)C(=O)[C@@]2(C)CO2)no1
0.49	COC[C@H](NC(=O)c1ccon1)C(=O)N[C@@H](COC)C(=O)N[C@@H](Cc1ccccc1)C(=O)[C@@]1(C)CO1

Test system: not listed separately
Experiment: Inhibition of chymotrypsin-like activity of human 20S proteasome beta 5 subunit by proteasome active site ELISA
Settings: not given

SMILES	IC50 [µM]
CCOc1cc(C(=O)N[C@@H](COC)C(=O)N[C@@H](COC)C(=O)N[C@@H](CC(C)C)C(=O)[C@@]2(C)CO2)no1	0.0093
COC[C@H](NC(=O)c1ccon1)C(=O)N[C@@H](COC)C(=O)N[C@@H](Cc1ccccc1)C(=O)[C@@]1(C)CO1	0.044
COC[C@H](NC(=O)c1cc(OC)no1)C(=O)N[C@@H](COC)C(=O)N[C@@H](CC(C)C)C(=O)[C@@]1(C)CO1	0.023

Test system: not listed separately
Experiment: Inhibition of chymotrypsin-like activity of 20S proteasome in human MOLT4 cells after 1 hr by […]
Assay type: cell-based
Settings: MOLT-4, 1 h

SMILES	IC50 [µM]
CCOc1cc(C(=O)N[C@@H](COC)C(=O)N[C@@H](COC)C(=O)N[C@@H](CC(C)C)C(=O)[C@@]2(C)CO2)no1	0.035
CC(C)C[C@H](NC(=O)c1cc(CN2CCOCC2)on1)C(=O)N[C@@H](Cc1ccccc1)C(=O)N[C@@H](CC(C)C)C(=O)[C@@]1(C)CO1	0.011
COC[C@H](NC(=O)c1cc(C)on1)C(=O)N[C@@H](Cc1ccccc1)C(=O)N[C@@H](CC(C)C)C(=O)[C@@]1(C)CO1	0.036
COC[C@H](NC(=O)c1ccon1)C(=O)N[C@@H](COC)C(=O)N[C@@H](Cc1ccccc1)C(=O)[C@@]1(C)CO1	0.047
CC(C)C[C@H](NC(=O)c1cc(Cn2ccnc2)on1)C(=O)N[C@@H](Cc1ccccc1)C(=O)N[C@@H](CC(C)C)C(=O)[C@@]1(C)CO1	0.059
COC[C@H](NC(=O)c1cc(OC)no1)C(=O)N[C@@H](COC)C(=O)N[C@@H](CC(C)C)C(=O)[C@@]1(C)CO1	0.032

Test system: Mus musculus
Experiment: Inhibition of chymotrypsin-like activity of 20S proteasome in BALB/c mouse adrenal gland at 10 mg/kg, po after 1 hr
Assay type: functional
Set-up: scale not given: the % may be the effect or the level left
Settings: not given

SMILES	Activity [%]
CCOc1cc(C(=O)N[C@@H](COC)C(=O)N[C@@H](COC)C(=O)N[C@@H](CC(C)C)C(=O)[C@@]2(C)CO2)no1	4
COC[C@H](NC(=O)c1ccon1)C(=O)N[C@@H](COC)C(=O)N[C@@H](Cc1ccccc1)C(=O)[C@@]1(C)CO1	34
COC[C@H](NC(=O)c1cc(OC)no1)C(=O)N[C@@H](COC)C(=O)N[C@@H](CC(C)C)C(=O)[C@@]1(C)CO1	21

Test system: not listed separately
Experiment: Solubility in ethanol-PS80 citrate buffer at pH 3.5 by HPLC analysis
Assay type: physicochemical
Settings: not given

SMILES	solubility [mg/mL]
CC(C)C[C@H](NC(=O)c1cc(CN2CCOCC2)on1)C(=O)N[C@@H](Cc1ccccc1)C(=O)N[C@@H](CC(C)C)C(=O)[C@@]1(C)CO1	1.48 (≈ 2370 µM)
COC[C@H](NC(=O)c1cc(C)on1)C(=O)N[C@@H](Cc1ccccc1)C(=O)N[C@@H](CC(C)C)C(=O)[C@@]1(C)CO1	0.75 (≈ 1420 µM)
CC(C)C[C@H](NC(=O)c1cc(Cn2ccnc2)on1)C(=O)N[C@@H](Cc1ccccc1)C(=O)N[C@@H](CC(C)C)C(=O)[C@@]1(C)CO1	≥ 1

Test system: not listed separately
Experiment: Cytotoxicity against multidrug resistance transporter expressing doxorubicin resistant human MESSA cells assessed as cell viability after 72 hrs by CellTiter-Glo luminescent assay
Assay type: functional, cell-based
Settings: MES-SA

SMILES	IC50 [µM]
CCOc1cc(C(=O)N[C@@H](COC)C(=O)N[C@@H](COC)C(=O)N[C@@H](CC(C)C)C(=O)[C@@]2(C)CO2)no1	0.066
CC(C)C[C@H](NC(=O)c1cc(CN2CCOCC2)on1)C(=O)N[C@@H](Cc1ccccc1)C(=O)N[C@@H](CC(C)C)C(=O)[C@@]1(C)CO1	0.07
COC[C@H](NC(=O)c1cc(C)on1)C(=O)N[C@@H](Cc1ccccc1)C(=O)N[C@@H](CC(C)C)C(=O)[C@@]1(C)CO1	0.075
COC[C@H](NC(=O)c1ccon1)C(=O)N[C@@H](COC)C(=O)N[C@@H](Cc1ccccc1)C(=O)[C@@]1(C)CO1	0.756
CC(C)C[C@H](NC(=O)c1cc(Cn2ccnc2)on1)C(=O)N[C@@H](Cc1ccccc1)C(=O)N[C@@H](CC(C)C)C(=O)[C@@]1(C)CO1	> 1
COC[C@H](NC(=O)c1cc(OC)no1)C(=O)N[C@@H](COC)C(=O)N[C@@H](CC(C)C)C(=O)[C@@]1(C)CO1	0.082

Test system: not listed separately
Experiment: Chemical stability in simulated intestinal fluid assessed as compound remaining at 4 uM after 15 mins
Assay type: physicochemical
Settings: read-out: Stability

SMILES	remaining at 0.25 h, 4 µM [%]
COC[C@H](NC(=O)c1cc(C)on1)C(=O)N[C@@H](Cc1ccccc1)C(=O)N[C@@H](CC(C)C)C(=O)[C@@]1(C)CO1	90
COC[C@H](NC(=O)c1cc(OC)no1)C(=O)N[C@@H](COC)C(=O)N[C@@H](CC(C)C)C(=O)[C@@]1(C)CO1	35

The remaining lines, values ahead:

remaining at 0.25 h, 4 µM [%]	SMILES
70	CCOc1cc(C(=O)N[C@@H](COC)C(=O)N[C@@H](COC)C(=O)N[C@@H](CC(C)C)C(=O)[C@@]2(C)CO2)no1
60	CC(C)C[C@H](NC(=O)c1cc(CN2CCOCC2)on1)C(=O)N[C@@H](Cc1ccccc1)C(=O)N[C@@H](CC(C)C)C(=O)[C@@]1(C)CO1
85	COC[C@H](NC(=O)c1ccon1)C(=O)N[C@@H](COC)C(=O)N[C@@H](Cc1ccccc1)C(=O)[C@@]1(C)CO1

Target: T1, Proteasome subunit beta type-8 (Homo sapiens, UniProt P28062)
T1 sequence (P28062 whole entry): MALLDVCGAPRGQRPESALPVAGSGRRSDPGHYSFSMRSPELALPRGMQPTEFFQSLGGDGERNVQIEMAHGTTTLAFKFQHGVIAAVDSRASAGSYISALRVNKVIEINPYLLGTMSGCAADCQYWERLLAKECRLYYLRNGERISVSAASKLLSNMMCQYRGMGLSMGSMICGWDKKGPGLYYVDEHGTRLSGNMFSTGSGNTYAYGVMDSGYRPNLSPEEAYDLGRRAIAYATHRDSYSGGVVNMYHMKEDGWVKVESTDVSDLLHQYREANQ
Settings: not given

SMILES	IC50 [µM]
CCOc1cc(C(=O)N[C@@H](COC)C(=O)N[C@@H](COC)C(=O)N[C@@H](CC(C)C)C(=O)[C@@]2(C)CO2)no1	0.041
COC[C@H](NC(=O)c1ccon1)C(=O)N[C@@H](COC)C(=O)N[C@@H](Cc1ccccc1)C(=O)[C@@]1(C)CO1	0.093
COC[C@H](NC(=O)c1cc(OC)no1)C(=O)N[C@@H](COC)C(=O)N[C@@H](CC(C)C)C(=O)[C@@]1(C)CO1	0.022

Test system: not listed separately
Experiment: Inhibition of chymotrypsin-like activity of human 20S proteasome by spectrofluorimetry
Settings: not given

SMILES	IC50 [µM]
COC[C@H](NC(=O)c1cc(C)on1)C(=O)N[C@@H](Cc1ccccc1)C(=O)N[C@@H](CC(C)C)C(=O)[C@@]1(C)CO1	0.0093
CC(C)C[C@H](NC(=O)c1cc(Cn2ccnc2)on1)C(=O)N[C@@H](Cc1ccccc1)C(=O)N[C@@H](CC(C)C)C(=O)[C@@]1(C)CO1	0.015
COC[C@H](NC(=O)c1cc(OC)no1)C(=O)N[C@@H](COC)C(=O)N[C@@H](CC(C)C)C(=O)[C@@]1(C)CO1	0.011

Continued, values first:

IC50 [µM]	SMILES
0.0031	CCOc1cc(C(=O)N[C@@H](COC)C(=O)N[C@@H](COC)C(=O)N[C@@H](CC(C)C)C(=O)[C@@]2(C)CO2)no1
0.0041	CC(C)C[C@H](NC(=O)c1cc(CN2CCOCC2)on1)C(=O)N[C@@H](Cc1ccccc1)C(=O)N[C@@H](CC(C)C)C(=O)[C@@]1(C)CO1
0.073	COC[C@H](NC(=O)c1ccon1)C(=O)N[C@@H](COC)C(=O)N[C@@H](Cc1ccccc1)C(=O)[C@@]1(C)CO1
